Results as given in article PMC6274922, “Defined Small Molecules Produced by Himalayan Medicinal Plants Display Immunomodulatory Properties” (International Journal of Molecular Sciences, 2018).
Converted amounts (≈) assume the structure as drawn. Values belong to the molecule of their own block, whether it stands above or below them.

Assays:
[1] = system: DC2.4 murine dendritic cell line; assay type: cell-based; conditions: for Median Fluorescence Intensity (MFI) of surface MHC-I expression: representative FACS plots, DC2.4 cells, media only control MFI 732
[2] = system: DC2.4 murine dendritic cell line; assay: Gene expression analysis by RT-qPCR in DC2.4 cells; assay type: cell-based, mouse; conditions: for modulation of gene expression, in words: DC2.4 cells, mRNA correlated with FACS RFI (Figure 3)
Procedure: The following day, cells were harvested and 20,000 live cells from each condition were sorted by FACS into RLT buffer and RNA extracted for mRNA analysis by RT-qPCR. The relative gene expression for each gene was calculated for each compound and compared to the media control. We then correlated gene expression with protein expression represented by the FACS RFI (Figure 3). […] The SUM of the changes for all genes and proteins relative to the media-only control is summarized in the bottom right corner of Figure 3 SUM.
DC2.4 cells were co-cultured overnight with test compounds as described above. The following day, cells were harvested and 20,000 live cells from each condition were sorted by FACS into RLT buffer and stored at −70 °C. On the day of extraction, frozen cell lysates were thawed quickly on ice and mRNA was extracted using the RNEasy micro kit (Qiagen, Chadstone Centre, VIC, Australia) according to the manufacturer’s instructions. cDNA was synthesized using oligo-dT and AMVRT (Promega, Sydney, Australia) according to the manufacturer’s instructions. Gene expression was measured using individual Taqman gene expression assays (Applied Biosystems, Foster City, CA, USA) and Platinum Taq polymerase (Life Technologies, Carlsbad, CA, USA) in a 15 μL volume reaction using a Rotorgene 3000 PCR machine (Corbett Research, Mortlake, Australia) with the following conditions: 2 min at 50 °C for calibration of fluorescence gain values, then denaturing at for 2 min at 95 °C, followed by 45 cycles of 5 s at 95 °C and 30 s at 60 °C. Gene expression was quantified relative to a standard curve generated from a titration of cloned cDNA and relative gene expression was calculated by dividing the expression value of the test sample by that of the cells grown in media only. All assays were conducted in triplicate.

[3] = Cytotoxicity by xCELLigence RTCA system; conditions: human
Procedure: (§1) The immortalized non-malignant human cholangiocyte cell line H69 is a SV40-transformed human bile duct epithelial cell line originally derived from a normal liver harvested for transplantation. […] Cytotoxicity screening of the test compounds against the H69 cell line was performed using an xCELLigence SP system (ACEA Biosciences Inc., San Diego, CA, USA) as described by us previously. All experiments were carried out as per the manufacturer’s instructions with 0.25–60 min read intervals using the real time cell assay (RTCA) software (ACEA Biosciences Inc., USA). All assays were conducted in triplicate. Inter-well spaces were filled with 100 µL of culture medium or PBS to prevent evaporation. The E-plates containing cells were seeded at 5000 cells/well and incubated overnight at 37 °C with 5% CO2. The cells were then treated with prepared concentrations (50, 100, 500 µg/mL) of the test compounds and the viability of the cells was monitored continually for 24 h.
(§2) We determined the IC50 values of test compounds based on the normalised cell index (nCI) for cells, as described previously. Briefly, the 24 h nCI relative to the negative DMSO treated controls (deemed 100%) on the y-axis was plotted against the log concentration value x-axis.

HL60 = system: HL60; parameters: method as in PMID 9584334; conditions: in vitro; cited from earlier work
[4] = system: A431 epithelial cancer cell lines; parameters: method as in PMID 9584334; conditions: in vitro; cited from earlier work
[5] = system: DC2.4 murine dendritic cell line; assay: Combined FACS + PCR score of immunomodulation in DC2.4 cells; assay type: cell-based, mouse
Procedure: The following day, cells were harvested and 20,000 live cells from each condition were sorted by FACS into RLT buffer and RNA extracted for mRNA analysis by RT-qPCR. The relative gene expression for each gene was calculated for each compound and compared to the media control.
DC2.4 cells (4000 cells in exponential phase/200 µL) were cultured in 96-well flat bottom plates overnight with a titration of the test compound in media (stock concentration of 1 mg/mL and further titrated in tissue culture media at 4 mid-log dilutions starting at 100 µg/mL) or media only (modified DMEM, 50 µM 2-mercaptoethanol and 216 mg/L L-glutamine, 10% heat-inactivated FCS). Each compound was tested twice, in replicate assays. […] The RFI (relative fluorescence intensity) for each parameter was calculated by dividing the median fluorescence intensity (MFI) of the test sample by that of the control (media-only) samples.
DC2.4 cells were co-cultured overnight with test compounds as described above. […] Gene expression was quantified relative to a standard curve generated from a titration of cloned cDNA and relative gene expression was calculated by dividing the expression value of the test sample by that of the cells grown in media only. […]

[6] = system: immortalized non-cancerous H69 human cholangiocyte cell line; assay: in vitro
Procedure: as §1, §2

lung carcinoma (A549) = system: lung carcinoma (A549); parameters: method as in PMID 29555944; conditions: cited from earlier work
HT-29 cancer cell lines = system: HT-29 cancer cell lines; parameters: method as in PMID 29555944; conditions: cited from earlier work
[7] = system: multi-drug resistant Plasmodium falciparum; conditions: cited from earlier work

Molecule: COc1c2ccoc2cc2oc(=O)ccc12 [Compound 13, bergapten]
Median Fluorescence Intensity (MFI) of surface MHC-I expression [1]: 304
modulation of gene expression, in words [2]: suppression of expression of some genes, and notably MHC-I at both the gene and protein level
IC50 at 24 h [3]: 126 µg/mL (≈ 585 µM)
anti-proliferative activity, in words (HL60): anti-proliferative activity
anti-proliferative activity, in words [4]: anti-proliferative activity

Molecule: protopine [Compound 8]
FACS SUM ([1]; sum of the RFI of the 7 surface markers): 9.95
PCR SUM ([2]; sum of the relative expression of the 7 genes): 10.01
Ave. ([5]; average of FACS and PCR values): 1.43
SUM FACS + PCR ([5]; sum of all FACS RFI and PCR relative expression values): 19.96
IC50 (cytotoxicity) [6]: 9 µg/mL
cell toxicity ([6]; H69 cells, at 24 h): 68%
cell toxicity ([6]; H69 cells, from 6 h): 23%

Molecule: COc1cc2c(cc1O)[C@@H]1Cc3ccc(OC)c(O)c3CN1CC2 [Compound 10, scoulerine]
Median Fluorescence Intensity (MFI) of surface MHC-I expression [1]: 1582
modulation of gene expression, in words [2]: strong up-regulator of several important genes including MHC-I, CD80 and CD86
cytotoxic activity, in words (lung carcinoma (A549)): significant cytotoxic activity
cytotoxic activity, in words (HT-29 cancer cell lines): significant cytotoxic activity
antimalarial activity, in words [7]: potent antimalarial drug lead compound

IC50 at 24 h [3]: 30 µg/mL (≈ 105 µM)
Molecule: O=c1cc(-c2ccc(O)c(O)c2)oc2cc(O)cc(O)c12 [Compound 6, luteolin]

IC50 at 24 h [3]: < 1 µg/mL
Molecule: CC#CC#C/C=C1\C=CC2(CCCO2)O1 (centres unmarked) [Compound 5, (E)-spiroether]
cell death ([6]; H69 cells, from 6 h with 100 µg/mL): 96.5%
